In patent US20090010902A1 (priority 2007, published 2009):

Assays:
[1] = system: TLR4 mRNA in human intestinal tract epithelial cell strain HT-29; assay type: cell-based
[2] = system: TLR4 protein; details: summary statement; no method described

Compound: CCCC(=O)O [butyric acid]
- TLR4 mRNA expression (result in words) [1]: similarly reduced
- expression amount of TLR4 protein (result in words) [2]: reduced
